This is an account of results in PMC6934184, “Selective DNA-PKcs inhibition extends the therapeutic index of localized radiotherapy and chemotherapy” (The Journal of Clinical Investigation, 2019).

This experiment addresses T1, PRKCA (PKC alpha) (Homo sapiens, UniProt P17252).
T1 construct: purchased Thermo Fisher Scientific (Life Technologies) SelectScreen
Briefly: SelectScreen Z'LYTE. Format: biochemical. In short, it runs like this:
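SelectScreen broad panel; activity (Z'LYTE, Adapta) plus binding formats. ATP: Km app for CSF1R Z'LYTE; 10 for CAMK1 Adapta. Readout = % per kinase.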

For the compound `CN(C(=O)CN1CCOCC1)c1ccc2sc3c(-c4cccc5c(=O)cc(N6CC7CCC(C6)O7)oc45)cccc3c2c1` [NU5455], the inhibition (in general, the change of the read-out against control, counted positive when it falls) at 1 µM is -2%.
